Measured values taken from publication PMC9936582, “Sulfamate Acetamides as Self-Immolative Electrophiles for Covalent Ligand-Directed Release Chemistry” (Journal of the American Chemical Society, 2023).
One block for each compound: values may come before it.

Tests used:
[1] = tested on: Mino cells; assay: In situ proteomic labeling with alkyne probes, in-gel fluorescence; type: cell-based; details: 2 h, TAMRA-azide CuAAC
Source text: To assess proteomic selectivity in cells, we have synthesized two sulfamate acetamides (2a and 2b) and a chloroacetamide (2c) with an alkyne functionality (Figure 2A and Figure S8). We treated Mino cells for two hours with either DMSO or 2a–2c. We then lysed the cells, labeled the alkynes via copper-catalyzed “click chemistry” (CuAAC) with TAMRA-azide, and imaged the adducts via in-gel fluorescence (Figure 2C). Similar to their reactivity pattern in the GSH reactivity assay, these compounds labeled various amounts of proteins under cellular conditions.
Mino cells were cultured in RPMI-medium supplemented with 15% FBS and 1% p/s at 37 °C and 5% CO2. […] The cells were lysed with RIPA buffer (Sigma, R0278), and protein concentration was determined using BCA protein assay (Thermo Fisher Scientific, 23225). Lysates were then diluted to 2 mg/mL in PBS. Lysates were clicked to TAMRA-azide (Lumiprobe). “Click” reaction was performed using a final concentration of 40 μM TAMRA-azide, 3 mM CuSO4, 3 mM Tris(3-hydroxypropyltriazolylmethyl)amine (THPTA, Sigma), and 3.7 mM Sodium L-ascorbate (Sigma) in a final volume of 60 μL. The samples were subjected to precipitation.
Precipitation: 1× chloroform, 4× methanol, and 3× water were added to the samples and vortexed thoroughly. The samples were spun down for 10 min at 4 °C, 21,000g. […]

[2] = molecular target: T1, Pin1 (Homo sapiens, UniProt Q13526); assay: Determination of KI and Kinact for Pin1; type: binding; details: Pin1 0.5 μM, 100 mM Tris buffer pH 7.4, 14 °C
T1 construct: The catalytic domain of Pin1 (2 μM) in […] and 75 mM NaCl (pH 7.5) was incubated; made in house
Procedure: intensities. Ratios that were above 20 or infinite (due to the sum being zero for the low intensities) were defined as 20. Intensities measured for different peptides containing the same modified cysteine were […]
Pin 1 (500 nM) was incubated at various concentrations of Sulfopin (0.5, 1, 2, 5, 20, 50, 100, 150, […]
in 100 mM Tris buffer at pH 7.4. After the addition, the samples are put at 14 °C. The reaction mixtures, at various time points (indicated in the graph), were injected into the LC/MS. For data analysis, the raw spectra were deconvoluted using a 10000:30000 Da window and 1 Da resolution. The labeling percentage for a compound was determined as the labeling of a specific compound (alone or together with other compounds) divided by the overall detected protein species. The % of unlabelled Pin 1 was plotted against time and fitted to the pseudo-first-order reaction kinetics formula (Figure S24A & C). The obtained rate constants were fitted to the Michaelis-Menten-type saturation curve (Fig. S24B & D) to extrapolate kinact and KI.

[3] = molecular target: T1, Pin1; assay: Intact protein MS labeling of Pin1; type: binding; details: 2 μM Pin1, 2 μM compound, pH 7.5, 1 h, 25 °C
Procedure: Initially, we incubated these compounds (4a–4g; 2 μM) with Pin1 (2 μM; 50 mM Tris buffer; pH 7.5, 1 h; 25 °C) to check covalent labeling by intact protein MS (Figure 5B,C; Figure S23). Under these conditions, sulfopin labeled 59% as previously reported;[38] the sulfonate (4a) labeled 18%, whereas alkyl sulfamates (4b and 4c) labeled 16 and 56%, respectively. […] We have previously reported that replacing the tert-butyl group in sulfopin by a cyclohexyl increases the labeling along with intrinsic thiol reactivity. Compound 4g contains a cyclohexyl group instead of the tert-butyl and a phenyl sulfamate electrophile and was able to label >95% of Pin1 under these conditions.
Pin1 was expressed and purified as previously reported.[38] The catalytic domain of Pin1 (2 μM) in […] and 75 mM NaCl (pH 7.5) was incubated with 2 μM sulfopin sulfamate (4a–4g) for 1 h at 25 °C.
The reaction mixtures, at room temperature for various times, were injected into the LC/MS. For data analysis, the raw spectra were deconvoluted using a 20,000:40,000 Da (For Pin1, 10,000:30,000) window and 1 Da resolution. The labeling percentage for a compound was determined as the labeling of a specific compound (alone or together with other compounds) divided by the overall detected protein species.

[4] = tested on: PATU-8988T cells; assay: Competitive isoDTB-ABPP in PATU-8988T cells; type: cell-based, human; set-up: dose or concentration left out as unconfirmed; details: 4 h
Procedure: Using our previously reported sulfopin-DTB probe[38] (Figure S29A), we evaluated the cellular engagement of these compounds with Pin1 in OCI-AML2 cells. Compounds 4c, 4d, 4e, and 4g and sulfopin were incubated in OCI-AML2 cells (0.5 and 2.5 μM) followed by lysis and treatment with sulfopin-DTB (1 μM). The lysates were pulled down using streptavidin beads, and Pin1 was imaged by Western blot. […] At 0.5 μM, all of these compounds show only ∼30% Pin1 engagement. […] Both sulfopin and 4d labeled only six peptides with an H/L ratio of >2. […]
The preparation of IsoDTB-ABPP samples was performed essentially as described in Zanon et al.2.
Experiments were conducted in quadruplicates. PATU cells were incubated for 2 h with 5 µM compounds Sulfopin or 3g (or with DMSO), and collected by centrifuge at 300 g for 5 min followed by ice cold PBS wash. For lysis, samples containing 10 million cells were dispersed in 0.5 mL of RIPA buffer (Sigma, R0278), incubated with occasional vortexing for 30 min on ice, followed by centrifugation at 21,000 g for 15 min. […]
sample was diluted to 1.7 mg/mL using PBS. To each sample, 5 µL of 10 mM IA-alkyne was added, followed by 1 h incubation at room temperature in the dark. 10 µL of 5 mM DesThioTag was added (Light for the compound treated samples, heavy for the DMSO-treated samples), followed by 18 µL of CuSO4:THPTA (100 mM), and the click reaction was initiated by addition of 15 µL of 150 mM sodium ascorbate (freshly dissolved in water). The samples were incubated on a rotary shaker for 1 h at room temperature. The compound-treated and DMSO-treated samples were mixed with 4 mL methanol, 1 mL chloroform and 2 mL water on ice, vortexed and centriduged at 3200 g for 10 min at 4°C. The top layer was aspirated, and 3 mL methanol was added, followed by centrifugation and aspiration of the supernatant. The pellets were air dried and stored at -80°C until the following treatment. The pellets were resuspended in 0.3 mL of 8 M urea freshly dissolved in PBS using probe sonication (8 sec total at 40% amplitude, 1 sec on/2 sec off, at room temperature). Following the resuspension, the samples were diluted with 1 mL of PBS. Then each sample was mixed with 1.3 mL of slurry containing 110 µL of streptavidin agarose beads (Thermo Streptavidin Agarose cat # 20349), prewashed, and dispersed in 0.2% IGEPAL. The samples were incubated with rotation for 3 h at room temperature. The beads were pelleted by centrifugation at 2000 g for 2 min, transferred to spin columns, and washed 3 times with 0.1% IGEPAL/PBS, 3 times PBS, and 3 times water.
The beads were then suspended in 8 M Urea/50 mM ammonium bicarbonate, and 15 µL of 31 mg/mL DTT were added, followed by incubation at 37°C for 45 min. […]

[5] = DTNB thiol reactivity assay; type: physicochemical
Procedure: The compound 5,5′-dithio-bis(2-nitrobenzoic acid) (DTNB; 50 μM) was incubated with 200 μM tris(2-carboxyethyl)phosphine (TCEP) in 20 mM sodium phosphate buffer (pH 7.4) and 150 mM NaCl for 5 min at room temperature to obtain TNB^–2. […] UV absorbance was acquired every 15 min for 7 h. The assay was performed in a 384-well plate using a Tecan Spark 10 M plate reader. […] Compounds were measured in triplicate. The data were fitted to a second-order reaction equation such that the rate constant (K) is the slope of ln([A][B0]/[B][A0]), where [A0] and [B0] are the initial concentrations of the compound (200 μM) and TNB^–2 (100 μM), respectively, and [A] and [B] are the remaining concentrations as a function of time as deduced from spectrometric measurements. Linear regression using Prism was performed to fit the rate against the first 7 h of measurements.

[6] = Metabolic stability of sulfopin analogues in liver microsomes; type: in vitro ADME
Procedure: Next, we examined the buffer stability of the sulfopin sulfamate acetamides in PBS buffer (pH 8; 37 °C). Similar to the model compounds, the chloroacetamide (sulfopin) and sulfonate (4a) warheads show 30 and 15% hydrolysis after 2 days, respectively (Figure S26).
Figure S27: Sulfopin sulfamates show high metabolic stability: Compounds (Sulfopin, 4d, and 4g) were incubated
in liver microsomes and injected to LC/MS/MS at indicated time points. The peak intensities of the compounds were […]

[7] = molecular target: T2, BTK (Homo sapiens, UniProt Q06187); assay: Cellular labeling profile of CoLDR probe in Mino cells, in-gel fluorescence; type: cell-based; set-up: endogenous in cells; host or cells: Mino cells; details: 2 h, 100 nM
[8] = GSH consumption assay (LC/MS); details: 100 μM compound, 5 mM GSH, same conditions as ibrutinib
[9] = molecular target: T2, BTK; assay: BTK activity (autophosphorylation) in Mino cells, Western blot; type: cell-based; set-up: endogenous in cells; host or cells: Mino cells; details: anti-human IgM activation
Procedure: To assess the cellular efficacy of these compounds, we followed the inhibition of BTK autophosphorylation in Mino cells. After 1 h of pre-incubation with the inhibitors and B-cell activation with an anti-IgM antibody, BTK autophosphorylation was followed by Western blot.
The cell pellets were subjected to immunoblotting, and Western blots were performed for p-BTK, BTK, and β-actin.
Cell pellets were washed with ice-cold PBS and lysed using RIPA buffer (Sigma, R0278). […] Samples containing 50 μg total protein were prepared with 4× LDS sample buffer (NuPAGE, Thermo Scientific, NP0007) and 20 mM DTT, which were then resolved on a 4–20% Bis–Tris gel (GeneScript SurePAGE, M00657). […] An EZ-ECL Kit (Biological Industries, 20-500-1000) was used to detect HRP activity.

[10] = Buffer stability assay; type: physicochemical
[11] = Q13526_C113 (Pin1 Cys113), text: PATU-8988T cells

T2 sequence (Q06187 whole entry): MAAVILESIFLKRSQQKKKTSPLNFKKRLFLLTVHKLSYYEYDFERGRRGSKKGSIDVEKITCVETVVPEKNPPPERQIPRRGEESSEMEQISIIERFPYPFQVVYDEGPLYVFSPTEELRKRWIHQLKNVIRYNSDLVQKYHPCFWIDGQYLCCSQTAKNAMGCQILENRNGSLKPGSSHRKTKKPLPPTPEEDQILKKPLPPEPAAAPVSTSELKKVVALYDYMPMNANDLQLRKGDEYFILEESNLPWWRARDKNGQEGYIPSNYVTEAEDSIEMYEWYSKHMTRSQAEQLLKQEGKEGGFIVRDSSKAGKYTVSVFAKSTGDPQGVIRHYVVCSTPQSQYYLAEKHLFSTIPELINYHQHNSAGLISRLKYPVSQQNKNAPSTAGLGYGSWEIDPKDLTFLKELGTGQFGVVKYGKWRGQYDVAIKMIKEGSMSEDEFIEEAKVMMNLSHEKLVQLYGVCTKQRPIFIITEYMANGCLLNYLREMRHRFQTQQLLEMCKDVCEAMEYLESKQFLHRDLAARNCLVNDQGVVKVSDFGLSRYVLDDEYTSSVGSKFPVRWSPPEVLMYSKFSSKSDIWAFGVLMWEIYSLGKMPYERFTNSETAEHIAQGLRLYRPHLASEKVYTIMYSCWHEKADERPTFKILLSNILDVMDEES
T1 sequence (Q13526 52-163 limits assumed): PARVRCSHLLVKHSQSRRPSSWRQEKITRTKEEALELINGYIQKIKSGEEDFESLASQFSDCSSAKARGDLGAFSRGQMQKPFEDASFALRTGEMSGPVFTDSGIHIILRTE

Compound: C#Cc1ccc(NC(=O)CCl)cc1 [2c]
proteins labeled under cellular conditions [1]: labeled the highest number of proteins

Ki [2]: 43.6 µM
labeling of Pin1 [3]: > 90%
thiol reactivity compared to sulfopin [5]: lower thiol reactivity than sulfopin
metabolic stability (in words) [6]: good metabolic stability
Compound: CC(C)(C)CN(C(=O)COS(=O)(=O)Nc1ccccc1)C1CCS(=O)(=O)C1 (stereo not drawn) [4d]
isoDTB-ABPP H/L Ratio [4, 11]: 3.057
isoDTB-ABPP H/L Ratio ([4]; Q15149_C4494, text: PATU-8988T cells): 2.693

Compound: C#CCOS(=O)(=O)N1CCC[C@@H](n2nc(-c3ccc(Oc4ccccc4)cc3)c3c(N)ncnc32)C1 [3j]
apparent off-targets that ibrutinib did not compete [7]: three
BTK labeling in cells (in words) ([7]; TAMRA-azide): showed BTK labeling
reaction with GSH (in words) [8]: did not undergo any reaction with GSH
BTK autophosphorylation / activity after treatment (in words) [9]: BTK remained active

Ki [2]: 217 µM
labeling of Pin1 [3]: 59%
hydrolysis (buffer stability, sulfopin analogues) ([10]; 200 μM, PBS buffer pH 8, 37 °C for four days): 30%
hydrolysis (buffer stability, sulfopin analogues) ([10]; PBS buffer pH 8, 37 °C, after 2 days): 30%
metabolic stability (in words) [6]: good metabolic stability
Compound: CC(C)(C)CN(C(=O)CCl)C1CCS(=O)(=O)C1 (stereo not drawn) [sulfopin, reference compound]
isoDTB-ABPP H/L Ratio ([4]; P18031_C32, text: PATU-8988T cells): 2.941
isoDTB-ABPP H/L Ratio [4, 11]: 11.8257
